Among the test systems are HCT-15; NCI/ADR-RES; SF-295; HCT-116; SW-620; NCI-H522; TK-10; Malme-3M; 786-0; RXF 393; OVCAR-8; MDA-N; SR; MDA-MB-435; K562; SN12C; OVCAR-3; HL-60; RPMI-8226; T47D.
Holding throughout (assay): NCI anticancer screen, dose series, 48 h

From ChEMBL document CHEMBL1201862, “PubChem BioAssay data set” (2004) come the findings set out here.

Molecules are shown by their SMILES.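 Cultured in 96-well plates, cells were exposed to test compound for 48 hours across five concentrations. GI50 = concentration required for 50% inhibition of growth.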 The source made the active and inactive calls. Cut-off read from the data, not from the text of the source: active = GI50 up to about 1.1 µM and inactive = higher.

For `CC1(CCOCc2ccccc2)NC(=O)NC1=O` (stereo not drawn), the GI50 with HCT-15 was more than 100 µM; in the assay on NCI/ADR-RES, > 100 µM (inactive); in the assay with SF-295, > 100 µM (inactive); with HCT-116, > 100 µM (inactive); with SW-620, > 100 µM (inactive); in the assay with NCI-H522, > 100 µM (inactive). In addition, the GI50 in the assay with TK-10, in the assay with Malme-3M, with 786-0, in the assay on RXF 393, in the assay on OVCAR-8 and with MDA-N was > 100 µM (inactive) throughout. In addition, the GI50 in the assay on SR, in the assay on MDA-MB-435, with K562, in the assay with SN12C and in the assay on OVCAR-3 was > 100 µM (inactive) throughout.

Turning to `COc1ccc(C(=O)O/N=C2/CCC/C2=C\c2ccccc2)cc1`, the GI50 in the assay on HCT-15 is more than 100 µM; with SF-295 it was > 65.8 µM (inactive); in the assay with HCT-116, > 100 µM (inactive); in the assay on SW-620 it was > 100 µM (inactive); in the assay on NCI-H522, 97.3 µM (inactive); with TK-10, > 91.6 µM (inactive). The GI50 was > 100 µM (inactive) with Malme-3M; > 72.3 µM (inactive) in the assay on 786-0; > 83 µM (inactive) with RXF 393; > 100 µM (inactive) in the assay with OVCAR-8; > 85.9 µM (inactive) in the assay with HL-60; > 100 µM (inactive) with SR. The GI50 in the assay with RPMI-8226, with K562, with SN12C and in the assay with OVCAR-3 was > 100 µM (inactive) throughout.

In the case of `CCOC(=O)/C(=C\c1ccc(O)c(OC)c1)C(=O)c1ccccc1`, the GI50 was 8.75 µM in the assay on HCT-15; 18.9 µM (inactive) with SF-295; 10.6 µM (inactive) with HCT-116; 13.1 µM (inactive) in the assay on SW-620; 7.5 µM (inactive) in the assay with NCI-H522; 25.9 µM (inactive) in the assay on TK-10. Moreover, the GI50 in the assay on Malme-3M is 18.6 µM (inactive); in the assay with 786-0, 16.7 µM (inactive); in the assay on RXF 393, 22.7 µM (inactive); in the assay with OVCAR-8, 11.7 µM (inactive); with HL-60 it was 10.4 µM (inactive); in the assay on SR it was 11 µM (inactive). The GI50 in the assay with RPMI-8226 is 9.77 µM (inactive); in the assay on K562, 9.59 µM (inactive); in the assay on SN12C, 11.1 µM (inactive); in the assay with OVCAR-3, 26.9 µM (inactive).

`O=C(CC(Cl)(Cl)C(Cl)(Cl)Cl)c1ccccc1`: the GI50 in the assay on HCT-15 was 2.17 µM; in the assay with NCI/ADR-RES it was 5.26 µM (inactive); in the assay on SF-295 it was 1.78 µM (inactive); in the assay on HCT-116, 2.1 µM (inactive); in the assay on SW-620, 3.51 µM (inactive); with NCI-H522 it was 2.65 µM (inactive). Further, the GI50 with TK-10 was 6.1 µM (inactive); in the assay with Malme-3M, 2.71 µM (inactive); in the assay with 786-0, 3.01 µM (inactive); with RXF 393, 1.96 µM (inactive); with OVCAR-8 it was 2.59 µM (inactive); with HL-60, 8.99 µM (inactive). Moreover, the GI50 is 2.73 µM (inactive) with T47D; 2.04 µM (inactive) in the assay with SR; 3.45 µM (inactive) with RPMI-8226; 2.23 µM (inactive) in the assay on MDA-MB-435; 2.09 µM (inactive) in the assay on K562; 0.59 µM (active) in the assay with SN12C. Further, the GI50 with OVCAR-3 is 1.85 µM (inactive).

`COC(=O)C1=C(SC)SC2(C(=O)OC)C3C=C(C)C4C(N13)C42C(=O)OC` (stereo not drawn): the GI50 in the assay on HCT-15 is more than 100 µM; with SF-295, > 100 µM (inactive); in the assay with HCT-116, > 100 µM (inactive); in the assay with SW-620, > 100 µM (inactive); in the assay on NCI-H522, > 100 µM (inactive); in the assay with TK-10 it was > 100 µM (inactive). In addition, the GI50 with Malme-3M, in the assay with 786-0, in the assay on RXF 393, with OVCAR-8, in the assay on HL-60 and with SR was > 100 µM (inactive) in each case. For the same compound, the GI50 with RPMI-8226, with K562, with SN12C and in the assay on OVCAR-3 was > 100 µM (inactive) each time.

Take `COC1=CC(O)(CC(N)=O)c2ccccc2C1=O` (stereo not drawn): the GI50 with HCT-15 was more than 100 µM; with SF-295, > 100 µM (inactive); in the assay with HCT-116 it was > 100 µM (inactive); in the assay on SW-620, > 100 µM (inactive); in the assay on NCI-H522, > 100 µM (inactive); with TK-10 it was > 100 µM (inactive). For the same compound, the GI50 with Malme-3M, in the assay with 786-0, with RXF 393, with OVCAR-8, in the assay with HL-60 and with SR was > 100 µM (inactive) each time. In addition, the GI50 in the assay on RPMI-8226, with K562, in the assay on SN12C and in the assay with OVCAR-3 was > 100 µM (inactive) throughout.

As for `COc1cc2c(cc1OC)C(C#N)(Cc1ccccc1)N(C(=O)c1ccccc1)C=C2` (stereo not drawn), the GI50 is 38.8 µM in the assay with HCT-15; > 100 µM (inactive) in the assay on SF-295; 50.9 µM (inactive) in the assay on HCT-116; 81.5 µM (inactive) in the assay with SW-620; 33.9 µM (inactive) in the assay with NCI-H522; > 100 µM (inactive) with TK-10. The GI50 in the assay on Malme-3M is > 100 µM (inactive); with 786-0, > 100 µM (inactive); in the assay with RXF 393 it was 24.4 µM (inactive); with OVCAR-8, 65.8 µM (inactive); with HL-60, 36.4 µM (inactive); in the assay with SR it was 45.7 µM (inactive). The GI50 was 35.5 µM (inactive) with RPMI-8226, 44.3 µM (inactive) in the assay with K562, > 100 µM (inactive) with SN12C and > 100 µM (inactive) in the assay on OVCAR-3.

Regarding `O=C1O/C(=C(/c2ccc(Cl)cc2)c2nc3ccccc3[nH]2)C(O)=C1c1ccc(Cl)cc1`, the GI50 was 3.99 µM (inactive) in the assay on SF-295; 1.93 µM (inactive) with HCT-116; 3.48 µM (inactive) in the assay on SW-620; 0.944 µM (active) in the assay on NCI-H522; 2.96 µM (inactive) in the assay with TK-10; 2 µM (inactive) in the assay on Malme-3M. The GI50 was 3.36 µM (inactive) with 786-0; 2.26 µM (inactive) in the assay with RXF 393; 2.82 µM (inactive) with OVCAR-8; 2 µM (inactive) in the assay with HL-60; 1.92 µM (inactive) in the assay with SR; 2.28 µM (inactive) with RPMI-8226. Further, the GI50 is 1.85 µM (inactive) with K562, 2.72 µM (inactive) with SN12C and 2.38 µM (inactive) with OVCAR-3.

Take `CCOc1cc2c(cc1O)C(O)C[C@@H]1[C@@H]2CC[C@]2(C)[C@@H](O)CC[C@@H]12` (stereo partly drawn): the GI50 with HCT-15 was 0.218 µM; in the assay on NCI/ADR-RES it was 0.279 µM (active); with SF-295, 0.281 µM (active); in the assay with HCT-116 it was 0.261 µM (active); with SW-620, 0.317 µM (active); in the assay with NCI-H522 it was 0.129 µM (active). The GI50 with TK-10 was 0.661 µM (active); in the assay with Malme-3M, 0.307 µM (active); in the assay with 786-0, 0.324 µM (active); in the assay with RXF 393, 1.44 µM (inactive); in the assay with OVCAR-8, 0.885 µM (active); in the assay with MDA-N, 0.0459 µM (active). The GI50 in the assay on HL-60 was 0.0822 µM (active); with SR, 4.94 µM (inactive); in the assay with RPMI-8226, 0.467 µM (active); with MDA-MB-435, 0.033 µM (active); in the assay with K562 it was 0.0991 µM (active); with SN12C, 0.61 µM (active). The GI50 in the assay on OVCAR-3 was 0.347 µM (active).

Consider `O=S1(=O)c2ccccc2N(c2ccccc2)c2nnnn21`, for which the GI50 in the assay with HCT-15 is 12.6 µM; with NCI/ADR-RES it was 31.4 µM (inactive); in the assay with SF-295 it was 47 µM (inactive); with HCT-116, 26.4 µM (inactive); in the assay on SW-620, 22.3 µM (inactive); in the assay with NCI-H522, 17.6 µM (inactive). Also, the GI50 is 38.5 µM (inactive) with TK-10; 17.1 µM (inactive) in the assay on 786-0; 19.9 µM (inactive) in the assay on RXF 393; 30.1 µM (inactive) in the assay with OVCAR-8; 11.4 µM (inactive) in the assay with HL-60; 31.8 µM (inactive) in the assay on T47D. The GI50 is 29.4 µM (inactive) in the assay with MDA-MB-435, 29.4 µM (inactive) with K562, 19.1 µM (inactive) with SN12C and 18.5 µM (inactive) in the assay with OVCAR-3.

Consider `COc1c(Br)cc(/C=C(\C#N)c2ccccn2)cc1Br`, for which the GI50 was 84.9 µM with HCT-15; 39.4 µM (inactive) in the assay on NCI/ADR-RES; 19.2 µM (inactive) in the assay with SF-295; 30.3 µM (inactive) in the assay on HCT-116; > 100 µM (inactive) in the assay with SW-620; > 100 µM (inactive) in the assay on NCI-H522. Besides, the GI50 in the assay on TK-10 was 67.6 µM (inactive); with Malme-3M it was 44.7 µM (inactive); in the assay on 786-0 it was 4.09 µM (inactive); in the assay on RXF 393 it was 22.8 µM (inactive); in the assay with OVCAR-8, 34.5 µM (inactive); with MDA-N it was > 10 µM (inactive). The GI50 in the assay with HL-60, in the assay with SR, in the assay with RPMI-8226, with K562, with SN12C and in the assay on OVCAR-3 was > 100 µM (inactive) throughout.

Take `Cc1cc(O)no1` [HYMEXAZOL]: the GI50 with HCT-15 is more than 100 µM; in the assay on NCI/ADR-RES, > 100 µM (inactive); with SF-295 it was > 100 µM (inactive); in the assay with HCT-116, > 100 µM (inactive); in the assay on SW-620 it was > 100 µM (inactive); in the assay on NCI-H522, > 100 µM (inactive). Further, the GI50 in the assay with TK-10, in the assay with 786-0, in the assay with RXF 393, in the assay on OVCAR-8, with RPMI-8226 and in the assay on MDA-MB-435 was > 100 µM (inactive) throughout. Further, the GI50 in the assay on K562 and with OVCAR-3 was > 100 µM (inactive) throughout.
